Source: PubChem BioAssay (NCI)
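1) Cells in 96-well plates. 2) Compound, 48 h, 5 concentrations. 3) Linear interpolation between surrounding doses. 4) Unreached endpoint = highest concentration. The concentration for full growth arrest is given as TGI.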

Tests used:
Assay in all cases: inhibition of tumour cell growth, NCI panel, 48 h
SK-MEL-28 melanoma = test system: SK-MEL-28 melanoma
CAKI-1 renal = test system: CAKI-1 renal
EKVX NSCLC = test system: EKVX NSCLC
RPMI-8226 leukemia = test system: RPMI-8226 leukemia
MCF7 breast = test system: MCF7 breast
HCC-2998 colon = test system: HCC-2998 colon
PC-3 prostate = test system: PC-3 prostate
HOP-92 NSCLC = test system: HOP-92 NSCLC
COLO 205 colon = test system: COLO 205 colon
SN12C renal = test system: SN12C renal

SMILES | TGI (SK-MEL-28 melanoma) [µM] | TGI (CAKI-1 renal) [µM] | TGI (EKVX NSCLC) [µM] | TGI (RPMI-8226 leukemia) [µM] | TGI (MCF7 breast) [µM] | TGI (HCC-2998 colon) [µM] | TGI (PC-3 prostate) [µM] | TGI (HOP-92 NSCLC) [µM] | TGI (COLO 205 colon) [µM] | TGI (SN12C renal) [µM]
Cc1ccc(C(=O)N(C(C)C)C(C)C)cc1N=NN(C)C | > 100 | > 100 | > 100 | > 100 | > 100 | > 100 | > 100 | > 100 | > 100 | > 100
OC1CCCC1C(O)(C(F)(F)F)C(F)(F)F (stereo not given) | > 100 | > 100 | > 100 | > 100 | > 100 | > 100 | > 100 | > 100 | > 100 | > 100
Cc1nnc2cc(C(=O)O)c3ccccc3n2c1=O | > 10 | > 10 | > 10 | > 10 | > 10 | > 10 | > 10 | > 10 | > 10 | > 10
CCCCCc1cc2c(cc1O)CC[C@@H]1[C@@H]2CC[C@]2(C)[C@@H](O)CC[C@@H]12 | 30.7 | 40.4 | 36.8 | 62.2 | 40.2 | 40 | 33.1 | 32.3 | 29.6 | 29.8
Cc1csc2c1C(=O)c1ccsc1C2=O | 2.95 | 34 | 20 | 20.1 | 2.98 | 14.6 | 8.1 | 12.5 | 24.8 | 4.83
S=C(N/N=C\C=N/NC(=S)N1CCCCCC1)N1CCCCCC1 | > 100 | > 100 | > 100 | > 100 | > 100 | > 100 | > 100 | > 100 | > 100 | > 100
Nc1ccc2c(c1)C(=O)c1ccccc1-2 | > 100 | > 100 | > 100 | > 100 | > 100 | > 100 | > 100 | 91 | > 100 | > 100
Cc1cc(S(=O)(=O)Nc2nnc3c(C(F)(F)F)cc(Cl)cn23)c(S)cc1Cl | > 100 | > 100 | > 100 | > 100 | > 100 | > 100 | > 100 | > 100 | > 100 | > 100
N#CC1=C(N)C(C#N)(C#N)C(c2ccc(F)cc2)C=C1C1CC1 (stereo not given) | 39.3 | 28.2 | 75.4 | 40.4 | 17.1 | 25.4 | 21.8 | 27 | 24.9 | 10.3
